Source: patent US7078437B2, “Apolipoprotein D degradation inhibitor” (Kao Corporation, priority 2003, dated 2006)

Tested on: apolipoprotein D
Assay: Inhibitory effect against degradation of apolipoprotein D (human sweat concentrate treated with Brevibacterium epiderumidis cells, western blot)
Format: biochemical
Conditions: human sweat concentrate as apolipoprotein-D-containing sample; Brevibacterium epiderumidis cells as protease, about 10^8 cfu/mL; 37° C. for 24 hours; antibody-staining after SDS-PAGE
Method: Inhibitory effects of lauric acid and oleic acid on degradation of apolipoprotein D were studied using a human sweat concentrate as an apolipoprotein-D-containing sample and Brevibacterium epiderumidis cells as a protease.
(1) Preparation of Sweat Samples
The absorbent cotton balls were squeezed, whereby a solution (57.5 mL) was collected. The collected solution was filtered through a 0.45-μm filter and then concentrated by use of a MILLIPOR Centriprep YM-10.
Distilled water was added again to the concentrate, and the resultant solution was concentrated in a similar manner by use of a Centriprep YM-10, to thereby remove substances of low molecular weight. The product was employed as a sweat concentrate.
(2) 100 mM Tris-HCl buffer (0.03 mL), distilled water (0.02 mL), and each of lauric acid (Sigma) and oleic acid (Sigma) were added to an aliquot (0.04 mL) of the sweat concentrate prepared through the above method (1). […] Briefly, the cell-treated sweat concentrate was subjected to SDS polyacrylamide electrophoresis (SDS-PAGE) by use of a Ready Gel J (15% of separation gel concentration, Bio-Rad Laboratories, Inc.), and the thus-separated proteins were electrically transcribed from the gel onto a PVDF filter (Millipore Corporation, Immobilon transfer membrane). […]

| SMILES | degradation of apolipoprotein D (percent residue of apolipoprotein D) |
| --- | --- |
| CCCCCCCCCCCC(=O)O [lauric acid] | degradation of apolipoprotein D was suppressed |
| CCCCCCCC/C=C\CCCCCCCC(=O)O [oleic acid] | degradation of apolipoprotein D was suppressed |
